Laboratory results from patent US12503475B2 (Centessa Pharmaceuticals (UK) Limited, priority 2020, dated 2025).

Target: T1, human orexin type 2 receptor (hOX2R) (Homo sapiens, UniProt O43614)
T1 construct: expressed in transfected cells
T1 sequence (O43614 1-444): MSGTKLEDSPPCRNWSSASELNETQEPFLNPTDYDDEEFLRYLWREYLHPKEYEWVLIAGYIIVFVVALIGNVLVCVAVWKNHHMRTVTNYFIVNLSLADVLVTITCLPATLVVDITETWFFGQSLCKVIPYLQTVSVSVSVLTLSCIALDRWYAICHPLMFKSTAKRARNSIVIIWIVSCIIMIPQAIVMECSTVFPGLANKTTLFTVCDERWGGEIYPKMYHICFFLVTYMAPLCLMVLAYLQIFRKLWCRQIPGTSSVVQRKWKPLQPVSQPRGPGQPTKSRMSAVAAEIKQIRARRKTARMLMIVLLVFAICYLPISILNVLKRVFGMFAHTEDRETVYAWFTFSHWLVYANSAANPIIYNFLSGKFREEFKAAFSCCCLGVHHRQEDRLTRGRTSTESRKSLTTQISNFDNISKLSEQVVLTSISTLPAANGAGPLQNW
Assay: Measurement of orexin type 2 receptor agonist activity (FLIPR calcium fluorescence)
Assay type: cell-based
Conditions: CHO cells expressing hOX2R, FLIPR calcium fluorescence; for EC50: read-out: hOx2 pEC50 (converted); for Emax: CHO, read-out: hOx2 Emax (%)
Outline: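 Agonism was read as fluorescence in cells stably expressing human OX2R. E. is the response at 10 μM relative to orexin A as full agonist (100%).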

Compound	EC50	Emax	hOx2 Emax (%)
CS(=O)(=O)NC1C(Cc2cccc(-c3ccccc3)c2)N(C(=O)[C@H]2C[C@H](F)C2)CC12CC2 (mixture of isomers) [Compound 49, N-(6-([1,1′-biphenyl]-3-ylmethyl)-5-((1r,3r)-3-fluorocyclobutane-1-carbonyl)-5-azaspiro[2.4]heptan-7-yl)methanesulfonamide]	1 to 10 nM	90 to 100%	
CO[C@H]1CCN(C(=O)N2CC3(CC3)[C@H](NS(C)(=O)=O)[C@@H]2Cc2cccc(-c3ccccc3)c2F)C1 [Compound 313, N-((6S,7S)-6-((2-fluoro-[1,1′-biphenyl]-3-yl)methyl)-5-((S)-3-methoxypyrrolidine-1-carbonyl)-5-azaspiro[2.4]heptan-7-yl)methanesulfonamide]	10 to 100 nM	90 to 100%	
CC[C@@H](O)C(=O)N1CC2(CC2)[C@H](NS(C)(=O)=O)[C@@H]1Cc1cccc(-c2ccccc2)c1 (racemic) [Compound 300]	10 to 100 nM	90 to 100%	
O=C([C@H]1CCO1)N1CC2(CC2)[C@H](NS(=O)(=O)C2CC2)[C@@H]1Cc1cccc(-c2ccccc2)c1 [Compound 42, N-((6S,7S)-6-([1,1′-biphenyl]-3-ylmethyl)-5-((R)-oxetane-2-carbonyl)-5-azaspiro[2.4]heptan-7-yl)cyclopropanesulfonamide]	1 to 10 nM	90 to 100%	
CCCS(=O)(=O)N[C@@H]1[C@H](Cc2cccc(-c3ccccc3)c2)N(C(=O)[C@H]2CCO2)CC12CC2 [Compound 310, N-((6S,7S)-6-([1,1′-biphenyl]-3-ylmethyl)-5-((R)-oxetane-2-carbonyl)-5-azaspiro[2.4]heptan-7-yl)propane-1-sulfonamide]	10 to 100 nM	90 to 100%	
[2H]C([2H])([2H])N(C(=O)N1CC2(CC2)[C@H](NS(C)(=O)=O)[C@@H]1Cc1cccc(-c2ccccc2)c1F)C([2H])([2H])[2H] [Compound 345, (6S,7S)-6-((2-fluoro-[1,1′-biphenyl]-3-yl)methyl)-N,N-bis(methyl-d3)-7-(methylsulfonamido)-5-azaspiro[2.4]heptane-5-carboxamide]	1 to 10 nM	90 to 100%	
O=C(NCC1(F)CC1)N1CC2(CC2)[C@H](NS(=O)(=O)CF)[C@@H]1Cc1cc(F)cc(-c2cc(F)cc(F)c2)c1F [Compound 415, (6S,7S)-N-((1-fluorocyclopropyl)methyl)-7-((fluoromethyl)sulfonamido)-6-((2,3′,5,5′-tetrafluoro-[1,1′-biphenyl]-3-yl)methyl)-5-azaspiro[2.4]heptane-5-carboxamide]	1 to 10 nM	90 to 100%	
O=C([C@H]1CCO1)N1CC2(CC2)[C@H](NS(=O)(=O)C2CC2)[C@@H]1Cc1cc(F)cc(-c2cc(F)cc(F)c2)c1F [Compound 405, N-((6S,7S)-5-((R)-oxetane-2-carbonyl)-6-((2,3′,5,5′-tetrafluoro-[1,1′-biphenyl]-3-yl)methyl)-5-azaspiro[2.4]heptan-7-yl)cyclopropanesulfonamide]	1 to 10 nM	90 to 100%	
O=C([C@H](O)CF)N1CC2(CC2)[C@H](NS(=O)(=O)CF)[C@@H]1Cc1cccc(-c2cc(F)cc(F)c2)c1F [Compound 391, 1-fluoro-N-((6S,7S)-5-((S)-3-fluoro-2-hydroxypropanoyl)-6-((2,3′,5′-trifluoro-[1,1′-biphenyl]-3-yl)methyl)-5-azaspiro[2.4]heptan-7-yl)methanesulfonamide]	0.0794 to 1 nM	90 to 100%	
O=C([C@H]1CCO1)N1CC2(CC2)[C@H](NS(=O)(=O)C2CC2)[C@@H]1Cc1cc(F)cc(-c2ccccc2)c1F [Compound 349, N-((6S,7S)-6-((2,5-difluoro-[1,1′-biphenyl]-3-yl)methyl)-5-((R)-oxetane-2-carbonyl)-5-azaspiro[2.4]heptan-7-yl)cyclopropanesulfonamide]	1 to 10 nM	90 to 100%	
CS(=O)(=O)N[C@@H]1[C@H](Cc2cccc(-c3ccccc3)c2)N(C(=O)[C@H](O)C(F)(F)F)CC12CC2 [Compound 43, N-((6S,7S)-6-([1,1′-biphenyl]-3-ylmethyl)-5-((S)-3,3,3-trifluoro-2-hydroxypropanoyl)-5-azaspiro[2.4]heptan-7-yl)methanesulfonamide]	1 to 10 nM		A (Emax ranging between 90 and 100)
CC(C)S(=O)(=O)N[C@@H]1[C@H](Cc2cc(F)cc(-c3ccccc3)c2F)N(C(=O)[C@H]2CCO2)CC12CC2 [Compound 396]	1 to 10 nM	90 to 100%	

The next lines start with the values.

EC50	Emax	hOx2 Emax (%)	Compound
> 1000 nM	90 to 100%		CS(=O)(=O)N[C@H]1[C@@H](Cc2cccc(-c3ccccc3)c2F)N(C(=O)[C@@H]2CCO2)CC12CC2 [Compound 19, N-((6R,7R)-6-((2-fluoro-[1,1′-biphenyl]-3-yl)methyl)-5-((S)-oxetane-2-carbonyl)-5-azaspiro[2.4]heptan-7-yl)methanesulfonamide]
1 to 10 nM	90 to 100%		CC(F)(F)CNC(=O)N1CC2(CC2)[C@H](NS(=O)(=O)CF)[C@@H]1Cc1cccc(-c2ccccc2)c1F [Compound 409]
1 to 10 nM	90 to 100%		CN(CC1CC1)C(=O)N1CC2(CC2)[C@H](NS(C)(=O)=O)[C@@H]1Cc1cccc(-c2ccccc2)c1F [Compound 332, (6S,7S)-N-(cyclopropylmethyl)-6-((2-fluoro-[1,1′-biphenyl]-3-yl)methyl)-N-methyl-7-(methylsulfonamido)-5-azaspiro[2.4]heptane-5-carboxamide]
1 to 10 nM	90 to 100%		O=C(NC[C@@H]1CCO1)N1CC2(CC2)[C@H](NS(=O)(=O)CF)[C@@H]1Cc1cccc(-c2ccccc2)c1F [Compound 374, (6S,7S)-6-((2-fluoro-[1,1′-biphenyl]-3-yl)methyl)-7-((fluoromethyl)sulfonamido)-N-(((S)-oxetan-2-yl)methyl)-5-azaspiro[2.4]heptane-5-carboxamide]
0.0794 to 1 nM	90 to 100%		CS(=O)(=O)N[C@@H]1[C@H](Cc2cccc(-c3ccccc3)c2F)N(C(=O)C2(O)CCC2)CC12CC2 [Compound 68, N-((6S,7S)-6-((2-fluoro-[1,1′-biphenyl]-3-yl)methyl)-5-(1-hydroxycyclobutane-1-carbonyl)-5-azaspiro[2.4]heptan-7-yl)methanesulfonamide]
0.0794 to 1 nM	90 to 100%		O=C([C@H]1CCO1)N1CC2(CC2)[C@H](NS(=O)(=O)CF)[C@@H]1Cc1cccc(-c2cccc(F)c2)c1F [Compound 132, N-((6S,7S)-6-((2,3′-dfluoro-1,1′-biphenyl-3-yl)methyl)-5-((R)-oxetane-2-carbonyl)-5-azaspiro[2.4]heptan-7-yl)-1-fluoromethanesulfonamide]
0.0794 to 1 nM	90 to 100%		CC(C#N)NC(=O)N1CC2(CC2)[C@H](NS(C)(=O)=O)[C@@H]1Cc1cccc(-c2ccccc2)c1F (stereo partly drawn) [Compound 341, (6S,7S)-N-(1-cyanoethyl)-6-((2-fluoro-[1,1′-biphenyl]-3-yl)methyl)-7-(methylsulfonamido)-5-azaspiro[2.4]heptane-5-carboxamide]
0.0794 to 1 nM	90 to 100%		O=C(N1CC2(CC2)C(NS(=O)(=O)CF)C1Cc1cccc(-c2ccccc2)c1F)C1(O)CCC1 (racemic) [Compound 108, 1-fluoro-N-(6-((2-fluoro-[1,1′-biphenyl]-3-yl)methyl)-5-(1-hydroxycyclobutane-1-carbonyl)-5-azaspiro[2.4]heptan-7-yl)methanesulfonamide]
0.0794 to 1 nM	90 to 100%		CCNC(=O)N1CC2(CC2)C(NS(=O)(=O)CC)C1Cc1cccc(-c2ccccc2)c1F (racemic) [Compound 52, N-ethyl-7-(ethylsulfonamido)-6-((2-fluoro-[1,1′-biphenyl]-3-yl)methyl)-5-azaspiro[2.4]heptane-5-carboxamide]
1 to 10 nM	90 to 100%		C[C@H](O)CN(C)C(=O)N1CC2(CC2)[C@H](NS(C)(=O)=O)[C@@H]1Cc1cccc(-c2ccccc2)c1F [Compound 323, (6S,7S)-6-((2-fluoro-[1,1′-biphenyl]-3-yl)methyl)-N-((S)-2-hydroxypropyl)-N-methyl-7-(methylsulfonamido)-5-azaspiro[2.4]heptane-5-carboxamide]
1 to 10 nM	90 to 100%		C[C@@H](F)S(=O)(=O)N[C@@H]1[C@H](Cc2cccc(-c3ccccc3)c2F)N(C(=O)[C@H]2CCO2)CC12CC2 [Compound 193, (S)-1-fluoro-N-((6S,7S)-6-((2-fluoro-[1,1′-biphenyl]-3-yl)methyl)-5-((R)-oxetane-2-carbonyl)-5-azaspiro[2.4]heptan-7-yl)ethane-1-sulfonamide]
1 to 10 nM	90 to 100%		CS(=O)(=O)N[C@@H]1[C@H](Cc2cccc(-c3ccccc3)c2)N(C(=O)C2(O)CCC2)CC12CC2 (racemic) [Compound 298]
1 to 10 nM	90 to 100%		COCCNC(=O)N1CC2(CC2)[C@H](NS(C)(=O)=O)[C@@H]1Cc1cccc(-c2ccccc2)c1F [Compound 311, (6S,7S)-6-((2-fluoro-[1,1′-biphenyl]-3-yl)methyl)-N-(2-methoxyethyl)-7-(methylsulfonamido)-5-azaspiro[2.4]heptane-5-carboxamide]
1 to 10 nM	90 to 100%		CC(C)S(=O)(=O)N[C@@H]1[C@H](Cc2cccc(-c3ccccc3)c2F)N(C(=O)[C@H]2CCO2)CC12CC2 [Compound 162, N-((6S,7S)-6-((2-fluoro-[1,1′-biphenyl]-3-yl)methyl)-5-((R)-oxetane-2-carbonyl)-5-azaspiro[2.4]heptan-7-yl)propane-2-sulfonamide]
